The text below walks through data of US8889671B2, “Compounds and methods for treating bacterial infections” (AstraZeneca AB, priority 2013, dated 2014).

The test system of series [1] is Stenotrophomonas maltophilia. Kind of series: In vitro antibacterial activity of Example 5 (MIC). Format: cell-based.
Series [2] in a line: Plasma pharmacokinetics in S. pyogenes infected mice. Format: in vivo. Conditions: mouse, ip, with ABT. Here is the method: Groups of satellite mice infected with S. pyogenes, as described above, were used for determining plasma concentrations. Dosing started 2 hours after infection and whole blood samples were taken at 0.5, 1, 2, 4, 6, 8, 12 and 24 h. Mice from the satellite PK study were euthanized by inhaled 5% isofluorane at specified time points post-treatment, mice were bled immediately by cardiac puncture. Heparinised blood samples were separated by centrifugation for five minutes at 13200 rpm. Plasma samples were stored at minus 80° C. before transfer to the client for analysis.
For the PK arm of the study, 3 mice per time point per unit dose were used. Due to unintended changes in the final work order, the 80 and 160 mg/kg dosing groups initially were administered Example 5 without prior treatment with aminobenzotriazole. Once this was realised, the remaining mice were re-distributed across the dosing groups and group size was reduced to two mice per time point.
Biological samples containing Example 5 were extracted using protein precipitation. To one volume of sample, 5 volumes of acetonitrile containing the internal standard (Glyburide) were added. The mixture was then mixed and the plate was centrifuged at 3200 rpm for 5 min. A 200 μL volume of the supernatant was dried down and, reconstituted in mobile phase and the mixture was injected onto liquid chromatography-mass spectrometry (LC-MS). A Sciex API 4000, controlled by Analyst v1.4.2, was used for the acquisition of the data and the quantification of Example 5.
The plasma profile for each dose group was obtained by calculating the average plasma concentration of compound in each of the two to three animals per time point. The area under the plasma concentration time curve from zero to infinity (AUC); maximum plasma drug concentration (Cmax); time to reach maximum concentration (tmax); and plasma half-life (t1/2) for each dose group was determined by non-compartmental analysis (WinNonLin 5.2, Pharsight). The non-compartmental Model 200 was used in the analysis.

Series [3] has as its target Escherichia coli DNA gyrase A/B tetramer (Escherichia coli (strain K12), UniProt P0AES4+P0AES6). Kind of series: DNA gyrase supercoiling activity fluorescence polarisation assay. Format: biochemical. Conditions: Eco Gyr FP Mean IC50, E. coli DNA gyrase supercoiling, 0.3 mM ATP. The method in brief:
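Relaxed triplex-forming plasmid (130 micrograms/mL) supercoiled by 5 nM gyrase A/B tetramer in Tris-HCl pH 7.5 buffer with 4 mM MgCl2 and 0.3 mM ATP, ~30 min, ambient temperature. Quenched with 5′-BODIPY-FL triplex probe at pH 3.5; fluorescence anisotropy read after 60 min. IC50 by nonlinear regression against two control reactions.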
A general note: In fluorescence polarisation assays a small probe gives low polarisation when free and higher when bound to something large.

Series [4] concerns Staphylococcus epidermidis. Kind of series: In vitro antibacterial activity of Example 5 (MIC). It is filed as cell-based.
The subject of series [5] is Prevotella melaninogenica. In words: In vitro antibacterial activity of Example 5 against anaerobes (MIC, agar dilution). Format: cell-based. In general terms: In agar dilution the substance is mixed into plates at graded concentrations.
Series [6] deals with Staphylococcus lugdunensis. In words: In vitro antibacterial activity of Example 5 (MIC). Format: cell-based.
In series [7] the test system is Propionibacterium acnes. Kind of series: In vitro antibacterial activity of Example 5 against anaerobes (MIC, agar dilution). Conditions: Cutibacterium acnes. It is filed as cell-based.
Series [8] has as its system Citrobacter freundii. Kind of series: In vitro antibacterial activity of Example 5 (MIC). It is filed as cell-based.
For series [9], the system named is Moraxella catarrhalis. Kind of series: In vitro antibacterial activity of Example 5 (MIC). It is filed as cell-based. Conditions: ATCC43617; Moraxella catarrhalis (ATCC 43617).
Series [10] concerns Candida albicans. In words: In vitro antibacterial activity of Example 5 (MIC). It is filed as cell-based. Conditions: ATCC90028; Candida albicans (ATCC 90028 CLSI QC Strain).
In series [11] the test system is Staphylococcus aureus. Kind of series: Emergence of resistance with serial passage. Format: cell-based. Conditions: after twenty passages with Example 5, S. aureus isolates (516 and 2398).
Series [12] has as its system Streptococcus pyogenes ATCC12384. Kind of series: Modal MIC against S. pyogenes ATCC12384. It is filed as cell-based. Here is the method: The MIC against S. pyogenes ATCC12384 was determined using the broth microdilution method following CLSI guidelines. Three individual determinations were performed for each strain and the Modal MIC was used for all PK/PD calculations. All animal experiments were performed under UK Home Office Licensure with local ethical committee clearance. All experiments were performed by technicians who have completed parts 1, 2 and 3 of the Home Office Personal License course and hold current personal licenses.

The test system of series [13] is B. cereus. Kind of series: microbe, parasite or virus in culture. Format: cell-based. Conditions: Bacillus cereus.
Series [14] concerns Streptococcus pyogenes. Kind of series: In vitro antibacterial activity of Example 5 (MIC). It is filed as cell-based. Conditions: for MIC: Streptococcus pyogenes (isolates not further specified).

Values after ≈ are worked out from the molar mass of the structure shown. Values joined by “and” are separate entries in the source; they are usually repeats but may differ in a detail not shown here. Identical values can stand only once. Like-named read-outs stand apart in the source and are kept apart here.

As to `C[C@@H]1CN2c3c(cc4c(N5C(=O)OC[C@@H]5C)noc4c3F)CC3(C(=O)NC(=O)NC3=O)[C@H]2[C@H](C)O1` [Example 5, (2R,4S,4aS)-11-Fluoro-2,4-dimethyl-8-[(4S)-4-methyl-2-oxo-1,3-oxazolidin-3-yl]-1,2,4,4a-tetrahydro-2′H,6H-spiro[1,4-oxazino[4,3-a][1,2]oxazolo[4,5-g]quinoline-5,5′-pyrimidine]-2′,4′,6′(1′H,3′H)-trione], the minimum inhibitory concentration (MIC) (as a rule, the lowest concentration that inhibits growth of the organism) in [1] is above 64 µg/mL; in [4] (Staphylococcus epidermidis (MRSE)) it was 0.25 µg/mL (≈ 0.513 µM); in series [5] it was 0.25 µg/mL (≈ 0.513 µM); in [6] it was 1 µg/mL (≈ 2.05 µM); in [7], 2 µg/mL (≈ 4.1 µM); in series [8], 16 µg/mL (≈ 32.8 µM). Further, the MIC in series [9] is 0.125 µg/mL (≈ 0.256 µM); in series [10] it was above 64 µg/mL; in [12], 0.125 µg/mL (≈ 0.256 µM); in [14], 0.25 µg/mL (≈ 0.513 µM); in series [14] (Streptococcus pyogenes, read-out: MIC), 0.125 µg/mL (≈ 0.256 µM). For the same compound, the AUC(0-inf) (usually total exposure, with the tail of the curve extrapolated) in series [2] (nominal dose 10 mg/kg (measured 4.1)) is 32.6 µg·h/mL; in series [2] (nominal dose 40 mg/kg (measured 25.4)) it was 109 µg·h/mL; in series [2] (nominal dose 60 mg/kg (measured 44.2)) it was 153 µg·h/mL; in series [2] (nominal dose 80 mg/kg (measured 66.2)), 251 µg·h/mL; in series [2] (nominal dose 160 mg/kg (measured 142.0)), 614 µg·h/mL. In [3], the midpoint of inhibition, the IC50, lay at 169 nM. For the same compound, the MIC90 is 0.25 µg/mL (≈ 0.513 µM) in [4] (Staphylococcus epidermidis, S. epidermidis, n=37); 0.5 µg/mL (≈ 1.03 µM) in series [6] (S. lugdunensis, n=11); 0.5 µg/mL (≈ 1.03 µM) in series [13]; 0.25 µg/mL (≈ 0.513 µM) in series [14] (Streptococcus pyogenes, 100 strains of S. pyogenes). In addition, the “decrease in susceptibility over the starting culture” value in [11] was 32 fold and 16 fold. Also, in [14] (Streptococcus pyogenes, 100 strains of S. pyogenes, read-out: MIC50 (MICH [sic])), the MIC50 (as a rule, the lowest concentration that inhibits either 50% of growth or 50% of the strains tested, depending on the study) is 0.125 µg/mL (≈ 0.256 µM).
